Test results published in ChEMBL document CHEMBL3525899, “Identification of the cytochrome P450 and other enzymes involved in the in vitro oxidative metabolism of a novel antidepressant, Lu AA21004” (Drug Metab Dispos, 2012).

Experiments:
Cytochrome P450 2E1 = Cytochrome P450 2E1 (Homo sapiens, UniProt P05181); experiment: Activity of human recombinant CYP2E1 expressed in microsomes isolated from human AHH-1 cells assessed as enzyme-mediated 1-(2-(2,4-dimethylphenylsulfinyl)phenyl)piperazine formation at 8 to 50 uM after 120 mins by HPLC/MS-MS analysis in presence of NADPH regenerating system with NADP+; assay type: ADME, cell-free; conditions: 2 h
Sequence of Cytochrome P450 2E1 (P05181 whole entry): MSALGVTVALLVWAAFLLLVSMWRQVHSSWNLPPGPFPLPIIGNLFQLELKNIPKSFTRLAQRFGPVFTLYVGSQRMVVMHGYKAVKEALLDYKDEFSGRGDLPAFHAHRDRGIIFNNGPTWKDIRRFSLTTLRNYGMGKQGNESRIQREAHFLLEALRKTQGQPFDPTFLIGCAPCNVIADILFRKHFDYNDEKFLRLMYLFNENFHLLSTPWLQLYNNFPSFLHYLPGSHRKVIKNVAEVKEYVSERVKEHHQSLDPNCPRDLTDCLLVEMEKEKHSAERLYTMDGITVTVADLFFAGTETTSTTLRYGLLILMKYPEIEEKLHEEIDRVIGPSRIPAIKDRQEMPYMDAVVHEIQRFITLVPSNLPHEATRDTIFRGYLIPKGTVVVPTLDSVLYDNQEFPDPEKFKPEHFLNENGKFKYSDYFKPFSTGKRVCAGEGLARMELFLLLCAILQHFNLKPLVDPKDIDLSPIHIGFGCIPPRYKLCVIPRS

Cytochrome P450 3A4 = Cytochrome P450 3A4 (Homo sapiens, UniProt P08684); experiment: Activity of human recombinant CYP3A4 expressed in microsomes isolated from human AHH-1 cells assessed as enzyme-mediated 3-(2,4-dimethylphenylthio)-4-(piperazin-1-yl)phenol formation at 8 to 50 uM after 120 mins by HPLC/MS-MS analysis in presence of NADPH regenerating system with NADP+; assay type: ADME, cell-free; conditions: 2 h
Sequence of Cytochrome P450 3A4 (P08684 whole entry): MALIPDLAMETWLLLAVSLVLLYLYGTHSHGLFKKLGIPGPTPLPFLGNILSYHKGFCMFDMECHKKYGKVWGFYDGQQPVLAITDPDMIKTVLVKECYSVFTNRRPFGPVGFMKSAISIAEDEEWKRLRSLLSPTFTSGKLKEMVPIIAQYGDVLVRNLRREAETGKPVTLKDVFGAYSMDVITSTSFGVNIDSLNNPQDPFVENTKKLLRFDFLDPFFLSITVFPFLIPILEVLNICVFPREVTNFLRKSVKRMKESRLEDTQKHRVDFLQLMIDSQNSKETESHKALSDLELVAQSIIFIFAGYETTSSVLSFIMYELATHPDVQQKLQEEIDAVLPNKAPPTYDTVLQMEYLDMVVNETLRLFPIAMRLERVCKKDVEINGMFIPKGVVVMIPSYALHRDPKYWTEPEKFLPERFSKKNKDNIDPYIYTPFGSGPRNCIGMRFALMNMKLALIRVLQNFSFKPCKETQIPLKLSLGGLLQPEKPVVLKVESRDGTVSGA

Liver microsome [1] = experiment: Drug metabolism in phenotyped human liver microsomes assessed as formation of (3-methyl-4-(2-(piperazin-1-yl)phenylthio)phenyl)methanol at 8 to 50 uM after 60 mins by HPLC/MS-MS analysis in presence of NADPH regenerating system with NADP+; assay type: ADME; conditions: 1 h
Cytochrome P450 2C19 = Cytochrome P450 2C19 (Homo sapiens, UniProt P33261); experiment: Activity of human recombinant CYP2C19 expressed in microsomes isolated from human AHH-1 cells assessed as enzyme-mediated 4-(2-(2,4-dimethylphenylthio)phenyl)piperazin-1-ol formation at 8 to 50 uM after 120 mins by HPLC/MS-MS analysis in presence of NADPH regenerating system with NADP+; assay type: ADME, cell-free; conditions: 2 h
Sequence of Cytochrome P450 2C19 (P33261 whole entry): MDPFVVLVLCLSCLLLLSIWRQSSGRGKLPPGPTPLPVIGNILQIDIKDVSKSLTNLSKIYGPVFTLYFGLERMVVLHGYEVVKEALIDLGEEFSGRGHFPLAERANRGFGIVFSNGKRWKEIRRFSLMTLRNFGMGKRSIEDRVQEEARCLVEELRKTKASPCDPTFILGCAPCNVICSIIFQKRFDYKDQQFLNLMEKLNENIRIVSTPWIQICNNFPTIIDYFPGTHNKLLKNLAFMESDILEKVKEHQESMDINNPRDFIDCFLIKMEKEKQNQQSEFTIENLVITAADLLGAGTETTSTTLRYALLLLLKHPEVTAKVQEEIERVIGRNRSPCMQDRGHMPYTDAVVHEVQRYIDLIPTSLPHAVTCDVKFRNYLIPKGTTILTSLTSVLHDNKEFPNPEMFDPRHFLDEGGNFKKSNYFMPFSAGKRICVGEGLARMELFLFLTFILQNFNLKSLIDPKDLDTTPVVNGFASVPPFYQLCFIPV

Cytochrome P450 2A6 = target: T1, Cytochrome P450 2A6 (Homo sapiens, UniProt P11509); experiment: Activity of human recombinant CYP2A6 expressed in microsomes isolated from human AHH-1 cells assessed as enzyme-mediated 3-(2,4-dimethylphenylthio)-4-(piperazin-1-yl)phenol formation at 8 to 50 uM after 120 mins by HPLC/MS-MS analysis in presence of NADPH regenerating system with NADP+; assay type: ADME, cell-free; conditions: 2 h
T1 sequence (P11509 whole entry): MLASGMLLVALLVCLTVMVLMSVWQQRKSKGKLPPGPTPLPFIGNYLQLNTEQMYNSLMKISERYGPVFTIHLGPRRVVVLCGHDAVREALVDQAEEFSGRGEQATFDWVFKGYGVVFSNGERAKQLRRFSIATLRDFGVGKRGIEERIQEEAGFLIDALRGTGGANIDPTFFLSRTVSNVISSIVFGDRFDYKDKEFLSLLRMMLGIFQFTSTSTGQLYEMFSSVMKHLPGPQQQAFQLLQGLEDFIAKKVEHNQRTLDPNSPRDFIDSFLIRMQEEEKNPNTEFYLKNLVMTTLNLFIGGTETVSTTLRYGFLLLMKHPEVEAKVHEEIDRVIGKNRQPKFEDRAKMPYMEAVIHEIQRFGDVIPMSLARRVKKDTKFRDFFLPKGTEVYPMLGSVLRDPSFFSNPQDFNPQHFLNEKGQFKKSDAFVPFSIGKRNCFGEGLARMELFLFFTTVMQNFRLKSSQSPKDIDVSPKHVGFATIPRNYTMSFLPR

Cytochrome P450 2C9 [2] = target: T2, Cytochrome P450 2C9 (Homo sapiens, UniProt P11712); experiment: Activity of human recombinant CYP2C9 expressed in microsomes isolated from human AHH-1 cells assessed as enzyme-mediated (3-methyl-4-(2-(piperazin-1-yl)phenylthio)phenyl)methanol formation at 8 to 50 uM after 120 mins by HPLC/MS-MS analysis in presence of NADPH regenerating system with NADP+; assay type: ADME, cell-free; conditions: 2 h
T2 sequence (P11712 whole entry): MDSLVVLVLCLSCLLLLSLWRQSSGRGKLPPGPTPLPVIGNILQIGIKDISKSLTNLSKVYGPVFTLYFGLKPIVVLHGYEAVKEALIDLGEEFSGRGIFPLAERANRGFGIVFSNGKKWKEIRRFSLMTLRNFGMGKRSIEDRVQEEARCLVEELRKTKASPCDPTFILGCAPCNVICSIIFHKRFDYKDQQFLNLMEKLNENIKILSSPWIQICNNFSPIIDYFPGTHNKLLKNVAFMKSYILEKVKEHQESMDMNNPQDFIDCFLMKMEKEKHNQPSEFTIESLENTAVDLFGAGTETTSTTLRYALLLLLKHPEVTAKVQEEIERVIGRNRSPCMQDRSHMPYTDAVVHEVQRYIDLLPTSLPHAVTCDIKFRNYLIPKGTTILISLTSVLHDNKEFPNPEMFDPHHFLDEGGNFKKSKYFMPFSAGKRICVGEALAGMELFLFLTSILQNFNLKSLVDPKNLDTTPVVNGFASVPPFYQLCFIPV

Cytochrome P450 2C9 [3] = target: T2, Cytochrome P450 2C9; experiment: Activity of human recombinant CYP2C9 expressed in microsomes isolated from human AHH-1 cells assessed as enzyme-mediated 3-(2,4-dimethylphenylthio)-4-(piperazin-1-yl)phenol formation at 8 to 50 uM after 120 mins by HPLC/MS-MS analysis in presence of NADPH regenerating system with NADP+; assay type: ADME, cell-free; conditions: 2 h
[4] = target: T3, Flavin-containing monooxygenase 3 (Homo sapiens, UniProt P31513); experiment: (§1) Activity of human recombinant FMO3 expressed in microsomes isolated from baculovirus infected insect BTI-TN-5B1-4 cells assessed as enzyme-mediated 3-methyl-4-(2-(piperazin-1-yl)phenylthio)phenyl)methanol formation at 8 to 50 uM after 120 mins by HPLC/MS-MS analysis in presence of NADPH regenerating system with NADP+; assay type: ADME; conditions: 2 h
T3 sequence (P31513 whole entry): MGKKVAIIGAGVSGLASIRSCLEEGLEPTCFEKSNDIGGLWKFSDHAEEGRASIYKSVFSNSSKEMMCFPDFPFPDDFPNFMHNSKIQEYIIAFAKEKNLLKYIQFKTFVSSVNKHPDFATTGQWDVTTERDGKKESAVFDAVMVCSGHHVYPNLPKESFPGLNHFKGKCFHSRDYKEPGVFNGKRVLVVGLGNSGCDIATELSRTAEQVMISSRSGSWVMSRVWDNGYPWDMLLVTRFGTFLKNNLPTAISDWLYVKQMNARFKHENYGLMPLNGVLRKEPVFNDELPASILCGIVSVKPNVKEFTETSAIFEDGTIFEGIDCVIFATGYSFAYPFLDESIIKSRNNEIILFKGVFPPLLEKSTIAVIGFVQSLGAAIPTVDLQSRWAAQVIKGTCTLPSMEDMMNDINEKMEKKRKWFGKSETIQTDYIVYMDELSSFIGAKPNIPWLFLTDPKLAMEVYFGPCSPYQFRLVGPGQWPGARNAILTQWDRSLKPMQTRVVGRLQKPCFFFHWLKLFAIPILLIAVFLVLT

Cytochrome P450 2D6 = Cytochrome P450 2D6 (Homo sapiens, UniProt P10635); experiment: Activity of human recombinant CYP2D6 expressed in microsomes isolated from human AHH-1 cells assessed as enzyme-mediated 3-methyl-4-(2-(piperazin-1-yl)phenylthio)benzoic acid formation at 8 to 50 uM after 120 mins by HPLC/MS-MS analysis in presence of NADPH regenerating system with NADP+; assay type: ADME, cell-free; conditions: 2 h
Sequence of Cytochrome P450 2D6 (P10635 whole entry): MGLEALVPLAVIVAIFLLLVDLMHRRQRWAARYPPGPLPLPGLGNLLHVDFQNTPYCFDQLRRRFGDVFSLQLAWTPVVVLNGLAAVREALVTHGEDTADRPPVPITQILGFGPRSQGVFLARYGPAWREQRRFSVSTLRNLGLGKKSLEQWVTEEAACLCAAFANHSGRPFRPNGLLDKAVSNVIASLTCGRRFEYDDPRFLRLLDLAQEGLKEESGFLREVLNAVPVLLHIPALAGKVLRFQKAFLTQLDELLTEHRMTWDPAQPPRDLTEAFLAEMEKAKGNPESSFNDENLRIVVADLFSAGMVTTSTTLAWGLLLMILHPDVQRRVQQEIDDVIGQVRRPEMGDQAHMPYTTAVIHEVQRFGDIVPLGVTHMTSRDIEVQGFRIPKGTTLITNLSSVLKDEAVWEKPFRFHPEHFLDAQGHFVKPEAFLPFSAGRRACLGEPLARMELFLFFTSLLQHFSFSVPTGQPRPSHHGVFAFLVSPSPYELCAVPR

Liver microsome [5] = experiment: Drug metabolism in phenotyped human liver microsomes assessed as formation of 3-(2,4-dimethylphenylthio)-4-(piperazin-1-yl)phenol at 8 to 50 uM after 60 mins by HPLC/MS-MS analysis in presence of NADPH regenerating system with NADP+; assay type: ADME; conditions: 1 h
Liver microsome [6] = experiment: Drug metabolism in pooled human liver microsomes assessed as formation of 4-(2-(2,4-dimethylphenylthio)phenyl)piperazin-1-ol at 100 uM after 30 to 180 mins by HPLC/MS-MS analysis in presence of NADPH regenerating system with NADP+; assay type: ADME
Liver microsome [7] = experiment: Drug metabolism in pooled human liver microsomes at 100 uM after 30 to 180 mins by HPLC/MS-MS analysis in absence of NADPH regenerating system with NADP+; assay type: ADME
Liver microsome [8] = experiment: Drug metabolism in pooled human liver microsomes assessed as formation of 4-(2-(2,4-dimethylphenylthio)phenyl)piperazin-1-ol after 30 mins by Michaelis-Menten plot analysis in presence of NADPH regenerating system with NADP+; assay type: ADME; conditions: 0.5 h, read-out: Km(app)
Liver microsome [9] = experiment: Drug metabolism in pooled human liver microsomes assessed as formation of 3-methyl-4-(2-(piperazin-1-yl)phenylthio)benzoic acid at 100 uM after 30 to 180 mins by HPLC/MS-MS analysis in presence of NADPH regenerating system with NADP+; assay type: ADME
[10] = target: T3, Flavin-containing monooxygenase 3; experiment: as §1, with “3-(2,4-dimethylphenylthio)-4-(piperazin-1-yl)phenol” for “3-methyl-4-(2-(piperazin-1-yl)phenylthio)phenyl)methanol”; assay type: ADME; conditions: 2 h

How did the Drug metabolism (Cytochrome P450 2E1) turn out when `Br.Cc1ccc(Sc2ccccc2N2CCNCC2)c(C)c1` [VORTIOXETINE HYDROBROMIDE] was run?
Its Drug metabolism is “metabolite_not_detected”.

What about the Drug metabolism (Cytochrome P450 3A4) of the same compound?
Its Drug metabolism is “metabolite_not_detected”.

And the Drug metabolism (Liver microsome [1])?
Its Drug metabolism is “metabolite_detected”.

What about the Drug metabolism (Cytochrome P450 2C19) of the same compound?
Its Drug metabolism is “metabolite_detected”.

What about the Drug metabolism (Cytochrome P450 2A6) of the same compound?
Its Drug metabolism is “metabolite_not_detected”.

What about the Drug metabolism (Cytochrome P450 2C9 [2]) of the same compound?
The Drug metabolism was “metabolite_detected”.

And the Drug metabolism (Cytochrome P450 2C9 [3])?
Its Drug metabolism is “metabolite_detected”.

And the Drug metabolism [4]?
Its Drug metabolism is “metabolite_not_detected”.

What about the Drug metabolism (Cytochrome P450 2D6) of the same compound?
The Drug metabolism was “metabolite_detected”.

What about the Drug metabolism (Liver microsome [5]) of the same compound?
Its Drug metabolism is “metabolite_detected”.

And the Drug metabolism (Liver microsome [6])?
The Drug metabolism was “metabolite_detected”.

What about the Drug metabolism (Liver microsome [7]) of the same compound?
The Drug metabolism was “metabolite_not_detected”.

What about the Km (Liver microsome [8]) of the same compound?
Its Km is 300 µM.

What about the Drug metabolism (Liver microsome [9]) of the same compound?
Its Drug metabolism is “metabolite_detected”.

What about the Drug metabolism [10] of the same compound?
The Drug metabolism was “metabolite_not_detected”.
